Results from the supplement of paper PMC11208160.

Test: recombinant barcode read abundance after kanamycin selection (control-corrected) (log10(CPM+1)); higher = more efficient recombination; sequences stand for … in AGTGCAGAGAAAATCGGCCAGTTTTCTCTGCCTGCAGTCCGCATGCCGT…AGATTTATGCAGCGGACTGCCTTTCTCCCAAAGTGATAAACCGGACAGTATCATGGACCGGTTTTCCCGGTAATCCGTATTTGCAAGGTTGGTTTCACT; site = the 11-nt target
In short: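 Recombination efficiency was calculated from barcode counts at recombinant junctions, normalized to counts per million, averaged and corrected by the control. Each value is given as log10(CPM+1). The constructs were Gibson-cloned oligos (promoter, target, barcode, J23119-driven first 104 bridge RNA bases) in a vector with the remaining 73 bp and a T7-inducible recombinase, co-electroporated into E. coli with a donor plasmid and plated in duplicate on chloramphenicol/ampicillin LB agar (control) or chloramphenicol/ampicillin/kanamycin with 0.1 mM IPTG.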
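Note: IS621 recombinase and bridge RNA in Escherichia coli cells.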

In order of rising “recombinant barcode read abundance (log10)” value:
1. TGTAGAGCTTGGGTTCTAACCTGTTGCCG (site TGTGGAGCTCG)  0
2. TGTCAACCTTGGGTTCTAACCTGTTGCCT (site TGTCAATCTAG)  0
3. TGTCCTGCTTGGGTTCTAACCTGTTGCCT (site AGTCCTGCTAG)  0
4. TGTATAGCTTGGGTTCTAACCTGTTGCTA (site GGTTTAGCTTA)  0.00884
5. TGTGCGGCTTGGGTTCTAACCTGTTGCCT (site CGTGCGGCTAG)  0.00936
6. TGTAGTCCTTGGGTTCTAACCTGTTGCTT (site TGTAGTCCTAT)  0.0117
7. TGTAAGACTTGGGTTCTAACCTGTTGCTG (site TGTAAGGCTAA)  0.015
8. TGTCTGTCTTGGGTTCTAACCTGTTGCTA (site TGTCTGTCTAA)  0.0174
9. TGTCTGGCTTGGGTTCTAACCTGTTGCCT (site TGTCTGGCTAG)  0.0185
10. TGTATAGCTTGGGTTCTAACCTGTTGCTA (site TGTATAGCTTA)  0.0299
11. TGTGCGGCTTGGGTTCTAACCTGTTGCCT (site AGTGCGGCTAG)  0.0331
12. TGTAGTCCTTGGGTTCTAACCTGTTGCTT (site TGTAGTCCTAA)  0.0506
13. TGTCGATCTTGGGTTCTAACCTGTTGCCT (site TGTCAATCTAC)  0.0889
14. TGTCTGTCTTGGGTTCTAACCTGTTGCTA (site TGTCTGTCTTA)  0.0943
15. TGTCCTGCTTGGGTTCTAACCTGTTGCCT (site GGTCCTGCTAG)  0.11
16. TGTCAACCTTGGGTTCTAACCTGTTGCCT (site TGTCAAGCTAG)  0.12
17. TGTCTATCTTGGGTTCTAACCTGTTGCCT (site TGTCTACCTAG)  0.123
18. TGTAGATCTTGGGTTCTAACCTGTTGCAT (site TGTTGACCTAT)  0.15
19. TGTAGATCTTGGGTTCTAACCTGTTGCAT (site TGTAGATCTAT)  0.152
20. TGTGCGGCTTGGGTTCTAACCTGTTGCCT (site TGTGCGGCTAG)  0.152
21. TGTCATGCTTGGGTTCTAACCTGTTGCGT (site TGTCATGCTAC)  0.163
22. TGTCCTGCTTGGGTTCTAACCTGTTGCCT (site CGTCCTGCTAG)  0.167
23. TGTAGTCCTTGGGTTCTAACCTGTTGCTT (site TGTAGTCCTAG)  0.187
24. TGTCTAGCTTGGGTTCTAACCTGTTGCGG (site CCAAATCCTAT)  0.208
25. TGTCTGGCTTGGGTTCTAACCTGTTGCCT (site AGTCTGGCTAG)  0.215
26. TGTCATGCTTGGGTTCTAACCTGTTGCGT (site CTCACACCTCT)  0.238
27. TGTAGAGCTTGGGTTCTAACCTGTTGCCG (site TGTAGAGCTCG)  0.243
28. TGTAGAGCTTGGGTTCTAACCTGTTGCCG (site TGTTGAGCTCG)  0.258
29. TGTAGTCCTTGGGTTCTAACCTGTTGCTT (site TGTAGTCCTAC)  0.264
30. TGTGAGTCTTGGGTTCTAACCTGTTGCGT (site TGTGAGTCTAG)  0.27
31. TGTCAACCTTGGGTTCTAACCTGTTGCCT (site TGTCAAACTAG)  0.346
32. TGTGAGTCTTGGGTTCTAACCTGTTGCGT (site TGTGAGTCTAA)  0.347
33. TGTCCTGCTTGGGTTCTAACCTGTTGCCT (site TGTCCTGCTAG)  0.36
34. TGTCTATCTTGGGTTCTAACCTGTTGCCT (site TGTCTATCTAG)  0.429
35. TGTAGAGCTTGGGTTCTAACCTGTTGCCG (site TGTCGAGCTCG)  0.483
36. TGTAAGACTTGGGTTCTAACCTGTTGCTG (site TGTAAGACTCA)  0.505
37. TGTGCGGCTTGGGTTCTAACCTGTTGCCT (site GGTGCGGCTAG)  0.535
38. TGTAAGACTTGGGTTCTAACCTGTTGCAG (site TGTAAGACTCT)  0.644
39. TGTCTAGCTTGGGTTCTAACCTGTTGCGG (site TGTCTAGCTCC)  0.695
40. TGTCGATCTTGGGTTCTAACCTGTTGCCT (site TGTCGATCTAG)  0.94
41. TGTCAACCTTGGGTTCTAACCTGTTGCCT (site TGTCAACCTAG)  0.998
42. TGTGAGTCTTGGGTTCTAACCTGTTGCGT (site TGTGAGTCTAT)  1.42
43. TGTGAGTCTTGGGTTCTAACCTGTTGCGT (site TGTGAGTCTAC)  2.55
